Test results reported in ChEMBL document CHEMBL3044946, “Glyphosate resistance in perennial ryegrass (Lolium perenne L.) from Argentina” (2012).
The source made the active and inactive calls. The calls are words filed in the database; no cut-off is given here.

How the values were obtained:
Lolium perenne [1] = test: Herbicidal activity against glyphosate-resistant Lolium perenne (perennial ryegrass) assessed as plant-regrowth at 720 g ae/ha measured 30 days after compound application; assay type: functional
Lolium perenne [2] = test: Herbicidal activity against glyphosate-resistant Lolium perenne (perennial ryegrass) assessed as plant-regrowth at 1440 g ae/ha measured 30 days after compound application; assay type: functional
Lolium perenne [3] = test: Herbicidal activity against glyphosate-resistant Lolium perenne (perennial ryegrass) assessed as plant-regrowth at 360 g ae/ha measured 30 days after compound application; assay type: functional
Lolium perenne [4] = test: Herbicidal activity against glyphosate-susceptible Lolium perenne (perennial ryegrass) assessed as inhibition of plant survival measured after 15 days post compound application; assay type: functional
Lolium perenne [5] = test: Induction of shikimate accumulation in leaf blades of glyphosate-susceptible Lolium perenne (perennial ryegrass) at 1440 g ae/ha measured 48 hr post compound application; assay type: functional, organism-based
Lolium perenne [6] = test: Herbicidal activity against glyphosate-resistant Lolium perenne (perennial ryegrass) assessed as inhibition of plant survival measured after 15 days post compound application; assay type: functional
Lolium perenne [7] = test: Reduction in chlorophyll content in glyphosate-susceptible Lolium perenne (perennial ryegrass) at 1000 to 3000 g ae/ha measured after 7 to 10 days post compound application; assay type: functional, organism-based
Lolium perenne [8] = test: Induction of shikimate accumulation in leaf lamina of glyphosate-susceptible Lolium perenne (perennial ryegrass) at 1440 g ae/ha measured 24 hr post compound application; assay type: functional, organism-based
Lolium perenne [9] = test: Herbicidal activity against glyphosate-susceptible Lolium perenne (perennial ryegrass) assessed as inhibition of germination; assay type: functional
Lolium perenne [10] = test: Herbicidal activity against glyphosate-resistant Lolium perenne (perennial ryegrass) assessed as plant-regrowth at 2880 g ae/ha measured 30 days after compound application; assay type: functional
Lolium perenne [11] = test: Herbicidal activity against glyphosate-resistant Lolium perenne (perennial ryegrass) assessed as regrowth level of controlled plants at 360 g ae/ha measured 30 days after compound application; assay type: functional
Lolium perenne [12] = test: Resistance index, ratio of ED50 for glyphosate-resistant Lolium perenne (perennial ryegrass) to ED50 for glyphosate-susceptible Lolium perenne (perennial ryegrass) by plant survival inhibition study; assay type: functional
Lolium perenne [13] = test: Induction of shikimate accumulation in leaf sheath of glyphosate-resistant Lolium perenne (perennial ryegrass) at 1440 g ae/ha measured 24 to 72 hr post compound application; assay type: functional, organism-based
Lolium perenne [14] = test: Herbicidal activity against glyphosate-susceptible Lolium perenne (perennial ryegrass) assessed as inhibition of plumule growth; assay type: functional
Lolium perenne [15] = test: Herbicidal activity against glyphosate-resistant Lolium perenne (perennial ryegrass) assessed as regrowth level of controlled plants at 720 g ae/ha measured 30 days after compound application; assay type: functional
Lolium perenne [16] = test: Herbicidal activity against glyphosate-resistant Lolium perenne (perennial ryegrass) assessed as regrowth level of controlled plants at 2880 g ae/ha measured 30 days after compound application; assay type: functional
Lolium perenne [17] = test: Induction of shikimate accumulation in leaf sheath of glyphosate-susceptible Lolium perenne (perennial ryegrass) at 1440 g ae/ha measured 48 hr post compound application; assay type: functional, organism-based
Lolium perenne [18] = test: Resistance index, ratio of LD50 for glyphosate-resistant Lolium perenne (perennial ryegrass) to LD50 for glyphosate-susceptible Lolium perenne (perennial ryegrass) by germination inhibition study; assay type: functional
Lolium perenne [19] = test: Herbicidal activity against glyphosate-resistant Lolium perenne (perennial ryegrass) assessed as regrowth level of controlled plants at 1440 g ae/ha measured 30 days after compound application; assay type: functional
Lolium perenne [20] = test: Reduction in chlorophyll content in glyphosate-resistant Lolium perenne (perennial ryegrass) at 1000 to 3000 g ae/ha measured after 10 days post compound application; assay type: functional, organism-based
Lolium perenne [21] = test: Herbicidal activity against glyphosate-resistant Lolium perenne (perennial ryegrass) assessed as inhibition of germination; assay type: functional
Lolium perenne [22] = test: Induction of shikimate accumulation in leaf lamina of glyphosate-susceptible Lolium perenne (perennial ryegrass) at 1440 g ae/ha measured 72 hr post compound application; assay type: functional, organism-based
Lolium perenne [23] = test: Resistance index, ratio of GR50 for glyphosate-resistant Lolium perenne (perennial ryegrass) to GR50 for glyphosate-susceptible Lolium perenne (perennial ryegrass) by plumule growth inhibition study; assay type: functional
Lolium perenne [24] = test: Induction of shikimate accumulation in leaf blade of glyphosate-resistant Lolium perenne (perennial ryegrass) at 1440 g ae/ha measured 24 to 72 hr post compound application; assay type: functional, organism-based
Lolium perenne [25] = test: Herbicidal activity against glyphosate-resistant Lolium perenne (perennial ryegrass) assessed as inhibition of plumule growth; assay type: functional

Q: O=C(O)CNCP(=O)(O)O [GLYPHOSATE] was tested. Which Activity (Lolium perenne [1]) did it give?
A: The Activity was 17%.

Q: What about the Activity (Lolium perenne [2]) of the same compound?
A: Its Activity is 23%.

Q: And the Activity (Lolium perenne [3])?
A: Its Activity is 6%.

Q: And the ED50 (Lolium perenne [4])?
A: The ED50 was 138.1 gAe/L.

Q: What about the Activity (Lolium perenne [5]) of the same compound?
A: Its Activity is “Active”.

Q: And the ED50 (Lolium perenne [6])?
A: Its ED50 is 1495 gAe/L.

Q: What about the Activity (Lolium perenne [7]) of the same compound?
A: Its Activity is “Active”.

Q: And the Activity (Lolium perenne [8])?
A: Its Activity is “Active”.

Q: What about the LD50 (Lolium perenne [9]) of the same compound?
A: Its LD50 is 42 gAe/L.

Q: And the Activity (Lolium perenne [10])?
A: Its Activity is 25%.

Q: What about the Activity (Lolium perenne [11]) of the same compound?
A: Its Activity is 37%.

Q: And the Ratio (Lolium perenne [12])?
A: Its Ratio is 10.8.

Q: And the Activity (Lolium perenne [13])?
A: The Activity was “inactive”.

Q: What about the GR50 (Lolium perenne [14]) of the same compound?
A: Its GR50 is 9.3 gAe/L.

Q: And the Activity (Lolium perenne [15])?
A: The Activity was 48%.

Q: What about the Activity (Lolium perenne [16]) of the same compound?
A: The Activity was 33%.

Q: What about the Activity (Lolium perenne [17]) of the same compound?
A: Its Activity is “Active”.

Q: What about the Ratio (Lolium perenne [18]) of the same compound?
A: The Ratio was 3.2.

Q: What about the Activity (Lolium perenne [19]) of the same compound?
A: The Activity was 43%.

Q: What about the Activity (Lolium perenne [20]) of the same compound?
A: Its Activity is “inactive”.

Q: And the LD50 (Lolium perenne [21])?
A: The LD50 was 138 gAe/L.

Q: And the Activity (Lolium perenne [22])?
A: Its Activity is “Active”.

Q: And the Ratio (Lolium perenne [23])?
A: The Ratio was 4.4.

Q: What about the Activity (Lolium perenne [24]) of the same compound?
A: Its Activity is “inactive”.

Q: What about the GR50 (Lolium perenne [25]) of the same compound?
A: The GR50 was 41.5 gAe/L.
